Tested on: Genes belonging to other category
Assay: DNA chip mRNA expression in yeast, genes belonging to other category (Table 9)
Format: cell-based, Saccharomyces cerevisiae S288C
Method in brief: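 S. cerevisiae S288C grown at 25° C in YPD were exposed in log phase for two hours to one toxic chemical at a growth-inhibiting, non-lethal concentration; untreated cells served as control. Poly(A) mRNA was reverse-transcribed with Cy3/Cy5-dUTP and hybridized to a whole-genome yeast DNA chip at 65° C for over 12 hours; values are fluorescence ratios versus untreated.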

`C[S+](C)[O-]` [(15), dimethylsulfoxide] was tested, and the “The level of expressed mRNA in the presence of chemical substance/The level of expressed mRNA in the absence of chemical substance” value (yeast gene YKL190W) was 1.4, the “The level of expressed mRNA in the presence of chemical substance/The level of expressed mRNA in the absence of chemical substance” value (yeast gene YKR014C) was 1.4 and the “The level of expressed mRNA in the presence of chemical substance/The level of expressed mRNA in the absence of chemical substance” value (yeast gene YLR090W) was 0.8. The “The level of expressed mRNA in the presence of chemical substance/The level of expressed mRNA in the absence of chemical substance” value (yeast gene YLR093C) was 0.9, the “The level of expressed mRNA in the presence of chemical substance/The level of expressed mRNA in the absence of chemical substance” value (yeast gene YLR118C) was 0.8 and the “The level of expressed mRNA in the presence of chemical substance/The level of expressed mRNA in the absence of chemical substance” value (yeast gene YLR120C) was 2.7. For the same compound, the “The level of expressed mRNA in the presence of chemical substance/The level of expressed mRNA in the absence of chemical substance” value (yeast gene YLR178C) was 2.3, the “The level of expressed mRNA in the presence of chemical substance/The level of expressed mRNA in the absence of chemical substance” value (yeast gene YLR250W) was 2.6 and the “The level of expressed mRNA in the presence of chemical substance/The level of expressed mRNA in the absence of chemical substance” value (yeast gene YLR251W) was 0.8. The “The level of expressed mRNA in the presence of chemical substance/The level of expressed mRNA in the absence of chemical substance” value (yeast gene YLR327C) was 0.8, the “The level of expressed mRNA in the presence of chemical substance/The level of expressed mRNA in the absence of chemical substance” value (yeast gene YLR356W) was 2.8 and the “The level of expressed mRNA in the presence of chemical substance/The level of expressed mRNA in the absence of chemical substance” value (yeast gene YLR362W) was 1.3. For the same compound, the “The level of expressed mRNA in the presence of chemical substance/The level of expressed mRNA in the absence of chemical substance” value (yeast gene YLR391W) was 3.9, the “The level of expressed mRNA in the presence of chemical substance/The level of expressed mRNA in the absence of chemical substance” value (yeast gene YMR004W) was 1.3 and the “The level of expressed mRNA in the presence of chemical substance/The level of expressed mRNA in the absence of chemical substance” value (yeast gene YMR051C) was 1.7. The “The level of expressed mRNA in the presence of chemical substance/The level of expressed mRNA in the absence of chemical substance” value (yeast gene YMR139W) was 0.9, the “The level of expressed mRNA in the presence of chemical substance/The level of expressed mRNA in the absence of chemical substance” value (yeast gene YMR219W) was 1.7 and the “The level of expressed mRNA in the presence of chemical substance/The level of expressed mRNA in the absence of chemical substance” value (yeast gene YMR226C) was 2.0. The “The level of expressed mRNA in the presence of chemical substance/The level of expressed mRNA in the absence of chemical substance” value (yeast gene YMR275C) was 1.7, the “The level of expressed mRNA in the presence of chemical substance/The level of expressed mRNA in the absence of chemical substance” value (yeast gene YMR276W) was 3.3 and the “The level of expressed mRNA in the presence of chemical substance/The level of expressed mRNA in the absence of chemical substance” value (yeast gene YNL006W) was 0.7. For the same compound, the “The level of expressed mRNA in the presence of chemical substance/The level of expressed mRNA in the absence of chemical substance” value (yeast gene YNL007C) was 0.8, the “The level of expressed mRNA in the presence of chemical substance/The level of expressed mRNA in the absence of chemical substance” value (yeast gene YNL015W) was 1.4 and the “The level of expressed mRNA in the presence of chemical substance/The level of expressed mRNA in the absence of chemical substance” value (yeast gene YNL214W) was 0.9. The “The level of expressed mRNA in the presence of chemical substance/The level of expressed mRNA in the absence of chemical substance” value (yeast gene YNL333W) was 1.0, the “The level of expressed mRNA in the presence of chemical substance/The level of expressed mRNA in the absence of chemical substance” value (yeast gene YNR010W) was 0.8 and the “The level of expressed mRNA in the presence of chemical substance/The level of expressed mRNA in the absence of chemical substance” value (yeast gene YNR069C) was 1.0. For the same compound, the “The level of expressed mRNA in the presence of chemical substance/The level of expressed mRNA in the absence of chemical substance” value (yeast gene YOL013C) was 2.7, the “The level of expressed mRNA in the presence of chemical substance/The level of expressed mRNA in the absence of chemical substance” value (yeast gene YOL164W) was 1.0 and the “The level of expressed mRNA in the presence of chemical substance/The level of expressed mRNA in the absence of chemical substance” value (yeast gene YOR117W) was 1.4. For the same compound, the “The level of expressed mRNA in the presence of chemical substance/The level of expressed mRNA in the absence of chemical substance” value (yeast gene YOR124C) was 1.3, the “The level of expressed mRNA in the presence of chemical substance/The level of expressed mRNA in the absence of chemical substance” value (yeast gene YOR132W) was 1.5 and the “The level of expressed mRNA in the presence of chemical substance/The level of expressed mRNA in the absence of chemical substance” value (yeast gene YOR157C) was 1.9. For the same compound, the “The level of expressed mRNA in the presence of chemical substance/The level of expressed mRNA in the absence of chemical substance” value (yeast gene YOR165W) was 0.8, the “The level of expressed mRNA in the presence of chemical substance/The level of expressed mRNA in the absence of chemical substance” value (yeast gene YOR181W) was 3.4 and the “The level of expressed mRNA in the presence of chemical substance/The level of expressed mRNA in the absence of chemical substance” value (yeast gene YOR185C) was 1.0. The “The level of expressed mRNA in the presence of chemical substance/The level of expressed mRNA in the absence of chemical substance” value (yeast gene YOR198C) was 3.8, the “The level of expressed mRNA in the presence of chemical substance/The level of expressed mRNA in the absence of chemical substance” value (yeast gene YOR259C) was 1.3 and the “The level of expressed mRNA in the presence of chemical substance/The level of expressed mRNA in the absence of chemical substance” value (yeast gene YOR261C) was 1.3. For the same compound, the “The level of expressed mRNA in the presence of chemical substance/The level of expressed mRNA in the absence of chemical substance” value (yeast gene YOR285W) was 2.0, the “The level of expressed mRNA in the presence of chemical substance/The level of expressed mRNA in the absence of chemical substance” value (yeast gene YOR288C) was 1.8 and the “The level of expressed mRNA in the presence of chemical substance/The level of expressed mRNA in the absence of chemical substance” value (yeast gene YOR355W) was 3.2. The “The level of expressed mRNA in the presence of chemical substance/The level of expressed mRNA in the absence of chemical substance” value (yeast gene YPL018W) was 0.9, the “The level of expressed mRNA in the presence of chemical substance/The level of expressed mRNA in the absence of chemical substance” value (yeast gene YPL089C) was 2.6 and the “The level of expressed mRNA in the presence of chemical substance/The level of expressed mRNA in the absence of chemical substance” value (yeast gene YPL109C) was 1.3. For the same compound, the “The level of expressed mRNA in the presence of chemical substance/The level of expressed mRNA in the absence of chemical substance” value (yeast gene YPL149W) was 0.8, the “The level of expressed mRNA in the presence of chemical substance/The level of expressed mRNA in the absence of chemical substance” value (yeast gene YPL154C) was 4.0 and the “The level of expressed mRNA in the presence of chemical substance/The level of expressed mRNA in the absence of chemical substance” value (yeast gene YPR073C) was 0.8. For the same compound, the “The level of expressed mRNA in the presence of chemical substance/The level of expressed mRNA in the absence of chemical substance” value (yeast gene YPR103W) was 1.0 and the “The level of expressed mRNA in the presence of chemical substance/The level of expressed mRNA in the absence of chemical substance” value (yeast gene YPR108W) was 1.3.
